The supplement of paper PMC11451515

Test system: SEM cells
Assay: cell viability relative to DMSO control; higher = less cytotoxic
Details: 48 h
How it was run: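 NOMO1 or SEM cells were plated at 500 cells/well and P12-Ichikawa cells at 1000 cells/well in 1536-well plates (5 μl), after each leukemia line had been adapted for at least four passages in each medium. Pin dosing delivered library compounds in DMSO at 11 threefold concentrations, 47 μM to 0.79 nM. CellTiter-Glo One luminescence was read after 48 h at 37°C. Viability is reported as a per-plate percentage of DMSO wells, with cell-free wells as background.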

[1] = HPLM + 10% dialyzed FBS, 0.000781 µM
[2] = HPLM + 10% dialyzed FBS, 0.00234 µM
[3] = HPLM + 10% dialyzed FBS, 0.00702 µM
[4] = HPLM + 10% dialyzed FBS, 0.0211 µM
[5] = HPLM + 10% dialyzed FBS, 0.0632 µM
[6] = HPLM + 10% dialyzed FBS, 0.19 µM
[7] = HPLM + 10% dialyzed FBS, 0.569 µM
[8] = HPLM + 10% dialyzed FBS, 1.71 µM
[9] = HPLM + 10% dialyzed FBS, 5.12 µM
[10] = HPLM + 10% dialyzed FBS, 15.4 µM
[11] = HPLM + 10% dialyzed FBS, 46.1 µM
[12] = RPMI 5 mM glucose + 10% FBS, 0.000781 µM
[13] = RPMI 5 mM glucose + 10% FBS, 0.00234 µM
[14] = RPMI 5 mM glucose + 10% FBS, 0.00702 µM
[15] = RPMI 5 mM glucose + 10% FBS, 0.0211 µM
[16] = RPMI 5 mM glucose + 10% FBS, 0.0632 µM
[17] = RPMI 5 mM glucose + 10% FBS, 0.19 µM
[18] = RPMI 5 mM glucose + 10% FBS, 0.569 µM
[19] = RPMI 5 mM glucose + 10% FBS, 1.71 µM
[20] = RPMI 5 mM glucose + 10% FBS, 5.12 µM
[21] = RPMI 5 mM glucose + 10% FBS, 15.4 µM
[22] = RPMI 5 mM glucose + 10% FBS, 46.1 µM
[23] = RPMI 5 mM glucose + 10% dialyzed FBS, 0.000781 µM
[24] = RPMI 5 mM glucose + 10% dialyzed FBS, 0.00234 µM
[25] = RPMI 5 mM glucose + 10% dialyzed FBS, 0.00702 µM
[26] = RPMI 5 mM glucose + 10% dialyzed FBS, 0.0211 µM
[27] = RPMI 5 mM glucose + 10% dialyzed FBS, 0.0632 µM
[28] = RPMI 5 mM glucose + 10% dialyzed FBS, 0.19 µM
[29] = RPMI 5 mM glucose + 10% dialyzed FBS, 0.569 µM
[30] = RPMI 5 mM glucose + 10% dialyzed FBS, 1.71 µM
[31] = RPMI 5 mM glucose + 10% dialyzed FBS, 5.12 µM
[32] = RPMI 5 mM glucose + 10% dialyzed FBS, 15.4 µM
[33] = RPMI 5 mM glucose + 10% dialyzed FBS, 46.1 µM

SMILES	cell viability [1]	cell viability [2]	cell viability [3]	cell viability [4]	cell viability [5]	cell viability [6]	cell viability [7]	cell viability [8]	cell viability [9]	cell viability [10]	cell viability [11]	cell viability [12]	cell viability [13]	cell viability [14]	cell viability [15]	cell viability [16]	cell viability [17]	cell viability [18]	cell viability [19]	cell viability [20]	cell viability [21]	cell viability [22]	cell viability [23]	cell viability [24]	cell viability [25]	cell viability [26]	cell viability [27]	cell viability [28]	cell viability [29]	cell viability [30]	cell viability [31]	cell viability [32]	cell viability [33]
CC(C)(C)OC(=O)CN(Cc1ccc(Cl)cc1)Cc1ccc([N+](=O)[O-])s1	110%	111%	101%	110%	110%	115%	109%	114%	92.8%	91.5%	43.7%	98.2%	103%	87.5%	94.4%	103%	108%	90.2%	110%	99.9%	95.2%	26.1%	90.7%	97.2%	94.3%	99.8%	92.8%	99.1%	97.3%	94%	91.2%	95.1%	21.1%
ClC1=CC=C(CCCOC/2=N/NC(=O)C(=C2NCC3=CN=CC=C3)/Br)C=C1	105%	115%	112%	115%	116%	115%	70.8%	30.2%	32.7%	16%	7.78%	121%	119%	130%	113%	104%	114%	103%	65.1%	72.2%	26.9%	8.69%	116%	133%	123%	112%	125%	126%	101%	93.8%	84.1%	49.7%	10%
CN(C)Cc1ccc(-c2nc3cccc4c3n2CCNC4=O)cc1	100%	105%	93.5%	114%	114%	118%	122%	121%	127%	119%	113%	103%	106%	119%	117%	109%	127%	94.7%	120%	129%	109%	115%	91.4%	96.3%	107%	94.7%	97.8%	107%	93%	98.7%	105%	110%	98.3%
CC(=O)N1CCN(c2ccc(OCc3nn(C)c(C)c3-c3cccc4c(CCCOc5cc(C)c(Cl)c(C)c5)c(C(=O)O)n(Cc5cccnc5)c34)cc2)CC1	78.5%	91.7%	106%	75.1%	111%	118%	117%	105%	99.3%	97.4%	2.86%	97.6%	84.3%	97.8%	77.5%	97.3%	104%	117%	100%	82.5%	54%	1.85%	96.3%	101%	106%	81.2%	111%	112%	110%	121%	94.6%	77.5%	1.96%
NC(=O)c1ccc(-c2nc(-c3ccc4c(c3)OCCO4)c(-c3ccccn3)[nH]2)cc1	116%	124%	109%	119%	120%	136%	135%	132%	143%	130%	126%	100%	112%	96.3%	114%	105%	111%	102%	110%	119%	112%	108%	119%	126%	111%	137%	121%	118%	124%	131%	122%	138%	146%
Nc1ccccc1NC(=O)c1ccc(CNc2nccc(-c3cccnc3)n2)cc1	98.4%	101%	117%	109%	119%	110%	73.1%	25.5%	8.57%	6.62%	7.25%	89.7%	94.4%	91.6%	97.6%	105%	105%	69.4%	21.8%	7.2%	6.22%	6.49%	92.7%	111%	106%	106%	117%	105%	62.8%	17.5%	7.07%	6.52%	7.92%
CN(C)CCOC(c1ccccc1)c1ccccc1	90.4%	90.5%	108%	110%	106%	98.1%	97.1%	94.3%	91.8%	92.9%	90.3%	107%	107%	113%	105%	111%	114%	104%	117%	94.1%	116%	97.5%	104%	96.8%	115%	121%	119%	114%	122%	102%	94.8%	94.4%	92%
COc1cc2nccc(Oc3ccc(NC(=O)C4(C(=O)Nc5ccc(F)cc5)CC4)cc3)c2cc1OC	87.6%	90.6%	71.2%	52.1%	53.5%	48.7%	52.9%	48.3%	47.1%	30.4%	16.7%	92.2%	89.2%	79.6%	62.2%	58.9%	55.4%	56%	51.7%	46.7%	31.2%	5.48%	71.3%	71.6%	57.2%	42.3%	47.9%	43.7%	41.1%	46.4%	40.1%	26.9%	12.6%
COc1ccc(Cc2nccc3cc(OC)c(OC)cc23)cc1OC	105%	126%	111%	131%	126%	124%	127%	128%	134%	121%	88%	110%	125%	117%	120%	131%	130%	118%	109%	123%	110%	53.9%	109%	107%	110%	110%	99.5%	109%	105%	118%	94%	111%	54.3%
COc1cc2nccc(Oc3ccc(NC(=O)Nc4cc(C)on4)c(Cl)c3)c2cc1OC	112%	116%	107%	107%	114%	102%	100%	71.2%	64.1%	59.9%	33.1%	86.4%	85.2%	79.9%	74.3%	82.1%	72.5%	73.9%	49.6%	33%	31.3%	14.1%	112%	125%	123%	107%	108%	115%	112%	71.5%	61.3%	43%	20.1%
CC(C)(C)/[N+]([O-])=C/c1ccc([S+](=O)([O-])[O][Na])cc1[S+](=O)([O-])[O][Na]	88.7%	76.3%	84.5%	99.9%	84.6%	98.6%	101%	90.3%	88.1%	99.2%	94.9%	115%	83.1%	86.9%	109%	105%	124%	110%	108%	116%	91.2%	108%	95.7%	105%	102%	94.1%	98.8%	120%	117%	104%	113%	105%	110%
CCOC(=O)C/1=C(C)/NC(=S)NC1C2=CC=CC(=C2)O (centres undefined)	110%	99.3%	103%	111%	68.2%	24.3%	22.9%	22.4%	7.01%	16%	15.2%	89.4%	104%	118%	109%	109%	20.5%	15.2%	12%	6.19%	7.56%	3.89%	100%	100%	108%	106%	101%	47.2%	21.2%	20.8%	5.56%	14.3%	8.93%
CNC(=O)[C@H](Cc1ccccc1)NC(=O)[C@H](CC(C)C)[C@H](CSc1cccs1)C(=O)NO	83%	82.9%	90%	96%	87.5%	110%	100%	95.7%	80.4%	57.7%	24.5%	95.9%	75.4%	96.3%	105%	74.8%	90.6%	89.8%	97.6%	77.7%	45.8%	25.4%	86.5%	69.4%	75.4%	82.2%	67.2%	81.7%	90.6%	78.4%	70.6%	40.4%	21.5%
O=C1\C=C(/OC2=C1C=CC=C2C3=CC=CC=C3)N4CCOCC4	45.8%	90.5%	89.2%	80.6%	65.1%	89.3%	90.3%	59%	87.3%	92.3%	58.3%	71.7%	114%	111%	115%	75.6%	91.8%	110%	74%	114%	94.6%	79.6%	48.9%	90%	88.3%	94.4%	66.7%	80%	86.5%	61.9%	101%	84.7%	62.7%
NC(=O)N1c2ccccc2CC(=O)c2ccccc21												124%	135%	121%	132%	126%	123%	139%	137%	137%	161%	142%	110%	116%	114%	117%	129%	118%	105%	124%	122%	123%	147%
